Experimental data from patent publication US8486991B2, “Enantiomerically pure phosphoindoles as HIV inhibitors” (Idenix Pharmaceuticals, Inc., priority 2006, dated 2013).
“Also recorded” adds a separate entry of the source. Read-outs that look alike come from different tables or passages of the source.

Tests used:
[1] = test system: HIV-1 RT K103N mutant enzyme; type: biochemical; settings: Table 2; mutant vs wild-type
Description: In Vitro Antiviral Activity Against Additional Mutant HIV RT Enzymes

[2] = test system: stimulated human primary blood mononuclear cells (PBMC); test: in vitro; settings: 3 days
Experimental: Cell viability was determined via MTT staining.

[3] = biological target: CYP2C9 (Homo sapiens, UniProt P11712); test: Recombinant CYP450 inhibition, Luciferin-H, CYP2C9; type: in vitro ADME; set-up: from tissue; host or cells: pooled human liver microsomes; settings: highest concentration tested 10 μM
Experimental: CYP2C9 inhibition was performed by incubating a luminogenic CYP450 substrate Luciferin-H with CYP2C9 and an NADPH regeneration system. Luminescence measured using a Fusion plate reader.

[4] = test system: CYP1A2 (activation of AhR in CYP1A2-DRE cells); test: CYP1A2 induction screen in CYP1A2-DRE cells; type: cell-based, human; settings: extent compared with TCDD, omeprazole, 2-acetylaminofluorene
Description: The potential for in vitro induction of CYP3A4 was screened in DPX2 cells. The DPX2 cell line is a derivative of a human hepatocellular carcinoma cell line (HepG2) transformed with the human pregnane x receptor (PXR) and a reporter gene vector containing the enhancer region of CYP3A4. The potential for in vitro induction of CYP1A2 was screened in CYP1A2-DRE cells. The CYP1A2-DRE cell line is a stably transformed HepG2 cells with dioxin response elements (DRE) and reporter gene containing CYP1A2 promoter elements. The extent of CYP3A4 induction was determined by comparing the activation of PXR obtained with test article to that obtained with rifampicine (potent inducer), mifepristone (moderate inducer) and androstanol (weak inducer). The extent of CYP1A2 induction was determined by comparing the activation of the aryl hydrocarbon receptor (AhR) obtained with test article to that obtained with TCDD (potent inducer), omeprazole (moderate inducer), and 2-acetylaminofluorene (weak inducer).

[5] = In vivo pharmacokinetics, rats; set-up: species or system rat; settings: plasma
Experimental: All animals received a single oral or intravenous dose of compound in either polyethylene glycol 400 (PEG400) or a mixture of 10% ethanol (EtOH), 10% dimethylacetamine (DMA) and 80% PEG400 at the indicated dose level. Plasma concentration data were acquired using sensitive and specific LC-MS/MS methods. Pharmacokinetic data from the toxicity study included aspects of gender differences, variability and exposure.
Blood samples (1.5-2.5 mL) were collected in heparinized tubes at 0 (pre-dose), 5 (IV only), 10, 20, 30 min, 1, 2, 4, 6, 8, 12 (PO only) and 24 hr after dosing. Plasma was separated and stored at −70° C. until analysis.
Concentrations of unlabeled compound I and compound III within plasma samples and excreta from rat, dog and monkey PK studies were identified through high performance liquid chromatographic (HPLC) methods that incorporated tandem mass spectrometric detection (LC-MS/MS).
The absolute oral bioavailability was determined in pharmacokinetic by comparison of AUC values of parent compound following single intravenous and oral doses of in rats (compound III only), dogs and monkeys.

Sequence of CYP2C9 (P11712 whole entry, the tested form may be a part): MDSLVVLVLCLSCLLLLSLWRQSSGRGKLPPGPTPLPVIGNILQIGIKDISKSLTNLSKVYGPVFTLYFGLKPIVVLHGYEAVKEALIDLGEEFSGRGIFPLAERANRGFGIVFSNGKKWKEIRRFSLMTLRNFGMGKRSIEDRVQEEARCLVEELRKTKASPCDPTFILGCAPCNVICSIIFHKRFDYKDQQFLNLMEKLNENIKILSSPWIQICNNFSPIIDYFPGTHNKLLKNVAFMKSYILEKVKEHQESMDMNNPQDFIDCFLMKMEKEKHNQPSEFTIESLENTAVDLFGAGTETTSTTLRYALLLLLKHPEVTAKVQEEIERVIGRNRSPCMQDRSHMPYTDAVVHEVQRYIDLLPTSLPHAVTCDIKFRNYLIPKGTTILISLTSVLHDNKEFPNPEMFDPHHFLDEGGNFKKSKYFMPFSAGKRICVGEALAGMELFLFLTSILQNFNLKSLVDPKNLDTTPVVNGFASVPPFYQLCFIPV

| Structure (SMILES) | Fold Change, K103N [1] | SI values from cytotoxicity and activity data in PBMC [2] | IC50 [3] | Induction, CYP1A2-DRE (CYP1A2) [4] | Tmax ([5]; male, Rat, 10 mg/kg PO-Fasted, 3M, mean) | bioavailability ([5]; male, Rat, 10 mg/kg PO-Fasted, 3M, IV 2 mg/kg, read-out: BA (absolute oral bioavailability)) | bioavailability ([5]; rat, po, text b979, (5 mg/kg), read-out: oral bioavailability in rats, exploratory PK studies) |
| --- | --- | --- | --- | --- | --- | --- | --- |
| CO[P@](=O)(c1cc(C)cc(/C=C/C#N)c1)c1c(C(N)=O)[nH]c2ccc(Cl)c(F)c12 [Compound I, (2-Carbamoyl-5-chloro-4-fluoro-1H-indol-3-yl)-[3-((E)-2-cyano-vinyl)-5-methyl-phenyl]-(R)-phosphinic acid methyl ester] | 3.2 ± 3.5 fold | > 100,000 | 8.4 ± 0.67 µM | – | – | – | – |
| CO[P@](=O)(c1cc(C)cc(/C=C/C#N)c1)c1c(C(N)=O)[nH]c2ccc(Cl)cc12 [Compound III, (2-Carbamoyl-5-chloro-1H-indol-3-yl)-[3-((E)-2-cyano-vinyl)-5-methyl-phenyl]-(R)-phosphinic acid methyl ester] | – | – | 6.85 ± 0.48 µM | moderate inducers; also recorded: Not inducer (n = 1) | 24 min | 38% | 38% |
